According to publication PMC7101356, “Cross-site and cross-platform variability of automated patch clamp assessments of drug effects on human cardiac currents in recombinant cells” (Scientific Reports, 2020):
Where two headings read alike, the source gives them in different places.

Key:
late hNav1.5 = molecular target: T1, late hNav1.5 (Homo sapiens, UniProt Q14524); test: Automated patch clamp, late hNav1.5 current block (ATX-II activated); type: cell-based; details: for IC50: read-out: log IC50, late hNav1.5 inhibition (converted)
T1 construct: expressed in transfected cells; host or cells: HEK293 or CHO, depending on site
Experimental: However, all external solutions contained 30 nM ATX-II in order to activate late current. Late current was measured at its maximum during the repolarizing ramp.
(§1) Concentration-response relationships for each test article were independently investigated, i.e., each cell received only one test article, typically evaluating multiple concentrations in a cumulative fashion (lowest to highest concentrations). However, some platforms tested only one concentration per well. Each concentration response was based on a minimum of four concentrations, with a minimum of three wells used for each concentration. In cases of high variability, more cells per concentration were recorded. Prior to drug addition, cells received an addition of vehicle to measure non-test article-related effects such as addition artifacts. At the end of the experiment, a supramaximal concentration of a known inhibitory reference compound was applied to assess leak current and appropriate responsiveness of the test system.
(§2) The steady state current at each concentration was used to determine the concentration-response relationships. Mean concentration-response data were fitted to a standard sigmoidal four-parameter logistic equation (GraphPad Prism 7; GraphPad Inc., La Jolla, CA) of the form: Y=Bottom+(Top−Bottom)/(1+10^∧(LogIC50−X)∗HillSlope) where Y is the current inhibition (in % of pre-drug control), X is the logarithm of drug concentration, and IC50 is the drug concentration producing half-maximal current inhibition. Curve fitting was performed using the following constraints: Top = 100%, Bottom = 0%, Hill Slope <2. No curve fitting was performed in cases with an obvious lack of a concentration-dependent current inhibition and/or small effect size (approximately ≤20%).

hERG = hERG (Homo sapiens, UniProt Q12809); test: Automated patch clamp, hERG current block (consensus step-ramp protocol); details: for hERG K+ current inhibition, Mean, at maximal concentration: max conc [mol/L]: bep 3.00E-07, cpz 3.00E-06, cis 3.00E-07, dil 1.00E-04, dof 1.00E-07, mex 1.00E-04, ond 1.00E-05, qui 1.00E-05, ran 1.00E-04, sot 3.00E-04, ter 3.00E-07, ver 1.00E-06; for hERG K+ current inhibition, Mean, at minimal concentration: min conc [mol/L]: bep 1.00E-08, cpz 1.00E-07, cis 1.00E-09, dil 3.00E-06, dof 1.00E-09, mex 1.00E-06, ond 3.00E-07, qui 1.00E-07, ran 3.00E-06, sot 1.00E-05, ter 1.00E-08, ver 3.00E-08
hERG, sequence (Q12809 whole entry): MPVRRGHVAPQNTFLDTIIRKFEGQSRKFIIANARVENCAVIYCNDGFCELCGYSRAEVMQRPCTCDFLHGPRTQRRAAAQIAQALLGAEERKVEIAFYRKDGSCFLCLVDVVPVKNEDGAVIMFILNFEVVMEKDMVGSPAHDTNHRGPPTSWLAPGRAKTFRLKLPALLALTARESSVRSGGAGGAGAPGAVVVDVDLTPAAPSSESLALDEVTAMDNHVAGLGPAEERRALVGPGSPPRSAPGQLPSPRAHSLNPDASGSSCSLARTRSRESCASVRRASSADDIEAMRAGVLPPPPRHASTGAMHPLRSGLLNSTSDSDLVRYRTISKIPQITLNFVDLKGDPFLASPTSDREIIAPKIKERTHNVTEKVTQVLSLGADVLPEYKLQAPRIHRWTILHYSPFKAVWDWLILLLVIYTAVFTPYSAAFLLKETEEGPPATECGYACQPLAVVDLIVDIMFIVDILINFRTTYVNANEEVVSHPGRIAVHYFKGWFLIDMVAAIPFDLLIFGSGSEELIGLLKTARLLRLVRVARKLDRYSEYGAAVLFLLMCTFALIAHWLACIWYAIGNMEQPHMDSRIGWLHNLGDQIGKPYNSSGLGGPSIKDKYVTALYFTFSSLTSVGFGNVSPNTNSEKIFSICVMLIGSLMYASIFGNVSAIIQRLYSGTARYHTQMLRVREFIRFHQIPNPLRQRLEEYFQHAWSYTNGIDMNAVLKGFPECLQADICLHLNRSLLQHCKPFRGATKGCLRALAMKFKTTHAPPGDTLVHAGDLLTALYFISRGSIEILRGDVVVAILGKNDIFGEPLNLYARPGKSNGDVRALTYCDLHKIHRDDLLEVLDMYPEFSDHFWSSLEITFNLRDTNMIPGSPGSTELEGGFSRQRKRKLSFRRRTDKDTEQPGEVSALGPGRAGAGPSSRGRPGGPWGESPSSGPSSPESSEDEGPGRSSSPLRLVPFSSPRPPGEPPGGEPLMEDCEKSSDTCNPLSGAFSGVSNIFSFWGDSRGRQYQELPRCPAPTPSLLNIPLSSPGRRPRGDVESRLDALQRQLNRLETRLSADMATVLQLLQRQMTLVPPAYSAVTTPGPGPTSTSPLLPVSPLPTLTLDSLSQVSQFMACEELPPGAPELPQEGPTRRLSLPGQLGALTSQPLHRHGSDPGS

peak hNav1.5 = molecular target: T2, peak hNav1.5 (Homo sapiens, UniProt Q14524); test: Automated patch clamp, peak hNav1.5 current block; type: cell-based
T2 construct: expressed in transfected cells; host or cells: HEK293 or CHO, depending on site
T2 sequence (Q14524 whole entry): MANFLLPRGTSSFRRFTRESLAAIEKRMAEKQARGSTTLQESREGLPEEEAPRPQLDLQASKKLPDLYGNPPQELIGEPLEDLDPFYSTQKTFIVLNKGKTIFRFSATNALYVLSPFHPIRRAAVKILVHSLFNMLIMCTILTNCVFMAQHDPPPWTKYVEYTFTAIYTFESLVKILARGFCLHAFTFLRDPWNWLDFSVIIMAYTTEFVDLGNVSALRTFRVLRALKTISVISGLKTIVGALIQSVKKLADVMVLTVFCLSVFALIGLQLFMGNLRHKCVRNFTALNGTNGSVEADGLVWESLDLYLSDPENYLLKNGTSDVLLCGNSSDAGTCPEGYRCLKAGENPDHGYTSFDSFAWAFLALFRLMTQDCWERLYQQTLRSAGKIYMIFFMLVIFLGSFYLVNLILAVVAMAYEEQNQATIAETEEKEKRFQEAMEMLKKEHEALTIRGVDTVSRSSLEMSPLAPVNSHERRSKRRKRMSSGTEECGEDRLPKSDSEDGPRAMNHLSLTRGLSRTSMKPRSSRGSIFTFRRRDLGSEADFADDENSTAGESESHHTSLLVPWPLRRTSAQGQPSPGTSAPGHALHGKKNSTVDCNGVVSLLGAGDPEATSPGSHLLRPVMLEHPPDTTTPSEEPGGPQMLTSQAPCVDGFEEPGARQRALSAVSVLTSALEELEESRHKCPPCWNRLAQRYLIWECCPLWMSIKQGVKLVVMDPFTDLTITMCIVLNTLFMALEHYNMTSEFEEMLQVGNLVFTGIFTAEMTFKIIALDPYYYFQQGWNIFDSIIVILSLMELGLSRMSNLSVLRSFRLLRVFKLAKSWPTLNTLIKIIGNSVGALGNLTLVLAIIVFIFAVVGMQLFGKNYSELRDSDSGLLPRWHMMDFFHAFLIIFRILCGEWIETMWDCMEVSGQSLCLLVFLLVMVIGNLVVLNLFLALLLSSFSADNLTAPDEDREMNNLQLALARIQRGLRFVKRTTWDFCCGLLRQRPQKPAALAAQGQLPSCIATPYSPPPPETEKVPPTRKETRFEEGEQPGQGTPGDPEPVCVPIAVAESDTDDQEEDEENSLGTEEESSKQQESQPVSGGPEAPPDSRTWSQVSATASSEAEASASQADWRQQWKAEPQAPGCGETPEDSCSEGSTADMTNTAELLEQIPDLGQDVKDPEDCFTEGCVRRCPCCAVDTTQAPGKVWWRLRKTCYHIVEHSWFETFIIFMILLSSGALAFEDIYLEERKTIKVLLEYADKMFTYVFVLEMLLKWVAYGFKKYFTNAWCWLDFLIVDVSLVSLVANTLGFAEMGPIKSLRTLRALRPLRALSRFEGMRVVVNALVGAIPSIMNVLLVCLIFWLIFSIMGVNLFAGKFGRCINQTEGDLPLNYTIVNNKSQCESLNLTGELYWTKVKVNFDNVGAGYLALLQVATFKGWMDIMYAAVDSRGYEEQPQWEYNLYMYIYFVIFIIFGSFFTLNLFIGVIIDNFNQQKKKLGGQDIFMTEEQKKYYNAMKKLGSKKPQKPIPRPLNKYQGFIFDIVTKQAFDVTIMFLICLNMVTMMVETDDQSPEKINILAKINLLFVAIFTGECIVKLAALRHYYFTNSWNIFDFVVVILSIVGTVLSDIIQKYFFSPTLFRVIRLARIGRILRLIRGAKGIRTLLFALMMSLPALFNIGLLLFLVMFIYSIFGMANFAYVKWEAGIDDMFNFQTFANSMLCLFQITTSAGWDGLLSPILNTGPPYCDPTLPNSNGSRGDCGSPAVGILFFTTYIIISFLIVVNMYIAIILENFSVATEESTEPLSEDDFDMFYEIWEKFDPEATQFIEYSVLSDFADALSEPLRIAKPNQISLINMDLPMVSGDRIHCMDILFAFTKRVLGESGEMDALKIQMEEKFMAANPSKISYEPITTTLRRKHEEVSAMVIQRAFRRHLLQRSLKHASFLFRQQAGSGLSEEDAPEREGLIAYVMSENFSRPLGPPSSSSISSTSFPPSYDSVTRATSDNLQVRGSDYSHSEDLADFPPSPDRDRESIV
Experimental: Peak current was measured during the depolarizing step to −15 mV. Leak current was measured after applying a saturating concentration of a blocker such as lidocaine (2 mM) at the end of each experiment to completely block hNav1.5 current.
as §1, §2

[1] = s03_p2, HEK293, room temperature
[2] = s16_p3, HEK293, room temperature

Cc1nccn1CC1CCc2c(c3ccccc3n2C)C1=O (stereo not shown) [ond, ondansetron]
nH, Hill slope, late hNav1.5 inhibition (late hNav1.5; site_platform s06_p4): 1.28
Late hNav1.5 Na+ current inhibition, Mean (late hNav1.5; site_platform s06_p4, 1.00E-05 mol/L): 61.7%
Late hNav1.5 Na+ current inhibition, Mean (late hNav1.5; site_platform s06_p4, 3.00E-07 mol/L): 0.5%
IC50 (late hNav1.5; site_platform s06_p4): 6.92 µM
nH, Hill slope, late hNav1.5 inhibition (late hNav1.5; site_platform s07_p6): 1.57
Late hNav1.5 Na+ current inhibition, Mean (late hNav1.5; site_platform s07_p6, 1.00E-05 mol/L): 47.6%
Late hNav1.5 Na+ current inhibition, Mean (late hNav1.5; site_platform s07_p6, 3.00E-07 mol/L): -14.8%
IC50 (late hNav1.5; site_platform s07_p6): 10.2 µM
log IC50, late hNav1.5 inhibition (late hNav1.5; site_platform s13_p2): no inh.
Late hNav1.5 Na+ current inhibition, Mean (late hNav1.5; site_platform s13_p2, 1.00E-05 mol/L): 20.9%
Late hNav1.5 Na+ current inhibition, Mean (late hNav1.5; site_platform s13_p2, 3.00E-07 mol/L): 9.2%
log IC50, late hNav1.5 inhibition (late hNav1.5; site_platform s14_p1): no inh.
Late hNav1.5 Na+ current inhibition, Mean (late hNav1.5; site_platform s14_p1, 1.00E-05 mol/L): 40.9%
Late hNav1.5 Na+ current inhibition, Mean (late hNav1.5; site_platform s14_p1, 3.00E-07 mol/L): 20.2%
inhibition at 1e-05 mol/L (hERG; human, recombinant cells expressing hERG, hERG K+ current inhibition, Mean, site_platform s07_p5, 1.00E-05 mol/L): 101%
inhibition at 3e-07 mol/L (hERG; human, recombinant cells expressing hERG, hERG K+ current inhibition, Mean, site_platform s07_p5, 3.00E-07 mol/L): 17%
inhibition at 4 min, 1e-05 mol/L (hERG; human, recombinant cells expressing hERG, hERG K+ current inhibition, Mean, site_platform s10_p3, 1.00E-05 mol/L): 71.8%
inhibition at 4 min, 3e-07 mol/L (hERG; human, recombinant cells expressing hERG, hERG K+ current inhibition, Mean, site_platform s10_p3, 3.00E-07 mol/L): 9.7%
inhibition at 7 min, 1e-05 mol/L (hERG; human, recombinant cells expressing hERG, hERG K+ current inhibition, Mean, site_platform s11_p1, 1.00E-05 mol/L): 89.6%
inhibition at 7 min, 3e-07 mol/L (hERG; human, recombinant cells expressing hERG, hERG K+ current inhibition, Mean, site_platform s11_p1, 3.00E-07 mol/L): 11.6%
inhibition at 1e-05 mol/L (hERG; human, recombinant cells expressing hERG, hERG K+ current inhibition, Mean, site_platform s12_p2, 1.00E-05 mol/L): 91.6%
inhibition at 3e-07 mol/L (hERG; human, recombinant cells expressing hERG, hERG K+ current inhibition, Mean, site_platform s12_p2, 3.00E-07 mol/L): 19.3%
inhibition at 1e-05 mol/L (hERG; human, recombinant cells expressing hERG, hERG K+ current inhibition, Mean, site_platform s13_p2, 1.00E-05 mol/L): 90%
inhibition at 3e-07 mol/L (hERG; human, recombinant cells expressing hERG, hERG K+ current inhibition, Mean, site_platform s13_p2, 3.00E-07 mol/L): 11.4%
inhibition at 7 min, 1e-05 mol/L (hERG; human, recombinant cells expressing hERG, hERG K+ current inhibition, Mean, site_platform s14_p1, 1.00E-05 mol/L): 89.4%
inhibition at 7 min, 3e-07 mol/L (hERG; human, recombinant cells expressing hERG, hERG K+ current inhibition, Mean, site_platform s14_p1, 3.00E-07 mol/L): 58.7%
hERG K+ current nH, Hill slope (hERG; s01_p1, CHO, 23 °C): 1.06
hERG K+ current inhibition, Mean, at maximal concentration (hERG; s01_p1, CHO, 23 °C): 83.1%
hERG K+ current inhibition, Mean, at minimal concentration (hERG; s01_p1, CHO, 23 °C): 8.8%
hERG K+ current nH, Hill slope (hERG; s02_p2, HEK293, 22–26 °C): 1.07
hERG K+ current inhibition, Mean, at maximal concentration (hERG; s02_p2, HEK293, 22–26 °C): 79.8%
hERG K+ current inhibition, Mean, at minimal concentration (hERG; s02_p2, HEK293, 22–26 °C): 6.1%
hERG K+ current nH, Hill slope (hERG; [1]): 1.08
hERG K+ current inhibition, Mean, at maximal concentration (hERG; [1]): 99.9%
hERG K+ current inhibition, Mean, at minimal concentration (hERG; [1]): 37.2%
hERG K+ current nH, Hill slope (hERG; s04_p3, CHO, room temperature): 0.97
hERG K+ current inhibition, Mean, at maximal concentration (hERG; s04_p3, CHO, room temperature): 90.6%
hERG K+ current inhibition, Mean, at minimal concentration (hERG; s04_p3, CHO, room temperature): 22.1%
hERG K+ current nH, Hill slope (hERG; s05_p4, HEK293, 22–24 °C): 1.32
hERG K+ current inhibition, Mean, at maximal concentration (hERG; s05_p4, HEK293, 22–24 °C): 93.2%
hERG K+ current inhibition, Mean, at minimal concentration (hERG; s05_p4, HEK293, 22–24 °C): 9.6%
hERG K+ current nH, Hill slope (hERG; s15_p1, HEK293, 22–23 °C): 0.88
hERG K+ current inhibition, Mean, at maximal concentration (hERG; s15_p1, HEK293, 22–23 °C): 87.4%
hERG K+ current inhibition, Mean, at minimal concentration (hERG; s15_p1, HEK293, 22–23 °C): 25.2%
hERG K+ current nH, Hill slope (hERG; [2]): 1.01
hERG K+ current inhibition, Mean, at maximal concentration (hERG; [2]): 84.1%
hERG K+ current inhibition, Mean, at minimal concentration (hERG; [2]): 11.9%
hERG K+ current nH, Hill slope (hERG; s18_p1, CHO, 35 °C): 1.05
hERG K+ current inhibition, Mean, at maximal concentration (hERG; s18_p1, CHO, 35 °C): 85.6%
hERG K+ current inhibition, Mean, at minimal concentration (hERG; s18_p1, CHO, 35 °C): 12.7%
hERG K+ current nH, Hill slope (hERG; s19_p3, CHO, room temperature): 1.01
hERG K+ current inhibition, Mean, at maximal concentration (hERG; s19_p3, CHO, room temperature): 92.9%
hERG K+ current inhibition, Mean, at minimal concentration (hERG; s19_p3, CHO, room temperature): 25.8%
nH (Hill slope), hERG K+ current inhibition (hERG; site_platform s07_p5): 1.26
nH (Hill slope), hERG K+ current inhibition (hERG; site_platform s10_p3): 0.98
nH (Hill slope), hERG K+ current inhibition (hERG; site_platform s11_p1): 1.10
nH (Hill slope), hERG K+ current inhibition (hERG; site_platform s12_p2): 1.03
nH (Hill slope), hERG K+ current inhibition (hERG; site_platform s13_p2): 1.19
nH (Hill slope), hERG K+ current inhibition (hERG; site_platform s14_p1): 0.47
peak hNav1.5 Na+ current inhibition (result in words) (peak hNav1.5; no inhibition = no obvious concentration-dependent current block and/or no curve fitting performed, all sites): no inhibition
log IC50, peak hNav1.5 Na+ current inhibition (peak hNav1.5; site_platform s01_p1): no inh.
Peak hNav1.5 Na+ current inhibition, Mean (peak hNav1.5; site_platform s01_p1, 1.00E-05 mol/L): 56.4%
Peak hNav1.5 Na+ current inhibition, Mean (peak hNav1.5; site_platform s01_p1, 3.00E-07 mol/L): 31.6%
log IC50, peak hNav1.5 Na+ current inhibition (peak hNav1.5; site_platform s02_p2): no inh.
